Assays:
Test in all cases: KINOMEscan competition binding
Details in all cases: compound 10.0 µM
[1] = molecular target: BMPR1B (human) (UniProt O00238)
[2] = molecular target: CSNK1A1L (human) (UniProt Q8N752)
[3] = molecular target: CIT (human) (UniProt O14578)
[4] = molecular target: MINK1 (human) (UniProt Q8N4C8)
[5] = molecular target: TSSK1B (human) (UniProt Q9BXA7)
[6] = molecular target: MAK (human) (UniProt P20794)
[7] = molecular target: TNK1 (human) (UniProt Q13470)
[8] = molecular target: STK39 (human) (UniProt Q9UEW8)
[9] = molecular target: FGFR2 (human) (UniProt P21802)
[10] = molecular target: ULK3 (human) (UniProt Q6PHR2)
[11] = molecular target: PHKG1 (human) (UniProt Q16816)
[12] = molecular target: ROS1 (human) (UniProt P08922)
[13] = molecular target: WEE1 (human) (UniProt P30291)
[14] = molecular target: SGK110 (human) (UniProt P0C264)
[15] = molecular target: PDPK1 (human) (UniProt O15530)
[16] = tested on: EGFR (human), P00533 [747-751 del / S ins]
EGFR (human), P00533 [747-751 del / S ins], sequence (P00533 whole entry, looked up, stated change not applied): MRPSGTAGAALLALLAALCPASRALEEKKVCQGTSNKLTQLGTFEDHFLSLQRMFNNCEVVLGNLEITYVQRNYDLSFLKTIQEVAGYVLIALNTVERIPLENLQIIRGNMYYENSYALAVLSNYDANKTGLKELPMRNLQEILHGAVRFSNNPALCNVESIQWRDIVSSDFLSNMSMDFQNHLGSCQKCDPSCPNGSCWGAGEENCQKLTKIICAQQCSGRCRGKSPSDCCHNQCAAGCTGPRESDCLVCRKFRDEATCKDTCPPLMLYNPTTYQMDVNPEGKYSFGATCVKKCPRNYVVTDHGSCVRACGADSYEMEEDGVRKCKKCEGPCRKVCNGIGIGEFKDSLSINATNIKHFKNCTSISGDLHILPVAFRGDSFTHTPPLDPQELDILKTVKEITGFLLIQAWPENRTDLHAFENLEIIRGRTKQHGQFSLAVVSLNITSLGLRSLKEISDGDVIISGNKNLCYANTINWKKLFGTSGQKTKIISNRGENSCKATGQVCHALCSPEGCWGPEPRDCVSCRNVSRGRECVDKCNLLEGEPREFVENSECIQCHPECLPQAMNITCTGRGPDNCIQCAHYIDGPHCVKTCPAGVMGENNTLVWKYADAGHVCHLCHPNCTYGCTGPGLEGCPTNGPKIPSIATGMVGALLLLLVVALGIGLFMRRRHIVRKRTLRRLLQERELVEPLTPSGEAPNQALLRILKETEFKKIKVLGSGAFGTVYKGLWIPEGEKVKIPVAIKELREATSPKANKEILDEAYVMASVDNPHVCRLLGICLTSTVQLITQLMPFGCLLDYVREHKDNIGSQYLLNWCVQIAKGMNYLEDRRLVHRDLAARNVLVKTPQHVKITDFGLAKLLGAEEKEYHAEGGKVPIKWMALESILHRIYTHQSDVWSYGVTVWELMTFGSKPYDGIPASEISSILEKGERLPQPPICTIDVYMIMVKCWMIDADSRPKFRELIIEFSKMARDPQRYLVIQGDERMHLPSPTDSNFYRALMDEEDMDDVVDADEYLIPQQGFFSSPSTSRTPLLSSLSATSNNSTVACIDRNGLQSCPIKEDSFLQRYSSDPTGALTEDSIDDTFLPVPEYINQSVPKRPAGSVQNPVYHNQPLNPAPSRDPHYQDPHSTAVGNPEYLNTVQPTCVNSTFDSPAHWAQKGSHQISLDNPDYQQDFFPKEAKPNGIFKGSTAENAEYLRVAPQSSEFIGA

[17] = molecular target: TGFBR1 (human) (UniProt P36897)
TGFBR1 (human), sequence (P36897 whole entry, looked up): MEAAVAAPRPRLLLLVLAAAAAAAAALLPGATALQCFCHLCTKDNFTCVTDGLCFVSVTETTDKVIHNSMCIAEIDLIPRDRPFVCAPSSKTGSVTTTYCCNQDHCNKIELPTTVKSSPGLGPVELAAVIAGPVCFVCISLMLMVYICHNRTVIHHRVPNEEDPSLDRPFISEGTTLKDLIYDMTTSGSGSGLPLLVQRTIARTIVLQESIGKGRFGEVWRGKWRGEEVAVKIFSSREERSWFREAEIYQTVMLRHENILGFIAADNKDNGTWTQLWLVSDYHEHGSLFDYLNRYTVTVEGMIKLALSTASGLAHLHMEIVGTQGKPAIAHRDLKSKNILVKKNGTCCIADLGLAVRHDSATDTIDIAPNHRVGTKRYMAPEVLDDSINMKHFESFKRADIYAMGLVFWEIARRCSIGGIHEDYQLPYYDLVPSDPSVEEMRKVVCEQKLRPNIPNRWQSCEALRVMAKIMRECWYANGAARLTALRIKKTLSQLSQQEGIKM

[18] = molecular target: WEE2 (human) (UniProt P0C1S8)
[19] = molecular target: KIT (human) (UniProt P10721)
[20] = molecular target: EPHA2 (human) (UniProt P29317)
[21] = molecular target: MAP2K3 (human) (UniProt P46734)
MAP2K3 (human), sequence (P46734 whole entry, looked up): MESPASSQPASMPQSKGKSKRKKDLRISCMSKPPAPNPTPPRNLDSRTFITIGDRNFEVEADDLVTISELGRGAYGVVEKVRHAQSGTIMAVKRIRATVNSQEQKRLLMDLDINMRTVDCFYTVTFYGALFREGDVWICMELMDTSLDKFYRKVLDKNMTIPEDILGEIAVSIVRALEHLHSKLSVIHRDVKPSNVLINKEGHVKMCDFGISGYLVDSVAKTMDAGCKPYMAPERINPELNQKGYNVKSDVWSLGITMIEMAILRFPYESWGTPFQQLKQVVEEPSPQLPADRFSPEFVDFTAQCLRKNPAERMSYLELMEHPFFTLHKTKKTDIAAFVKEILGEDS

[22] = molecular target: MKNK1 (human) (UniProt Q9BUB5)
[23] = molecular target: CDKL2 (human) (UniProt Q92772)
[24] = molecular target: NEK5 (human) (UniProt Q6P3R8)
NEK5 (human), sequence (Q6P3R8 whole entry, looked up): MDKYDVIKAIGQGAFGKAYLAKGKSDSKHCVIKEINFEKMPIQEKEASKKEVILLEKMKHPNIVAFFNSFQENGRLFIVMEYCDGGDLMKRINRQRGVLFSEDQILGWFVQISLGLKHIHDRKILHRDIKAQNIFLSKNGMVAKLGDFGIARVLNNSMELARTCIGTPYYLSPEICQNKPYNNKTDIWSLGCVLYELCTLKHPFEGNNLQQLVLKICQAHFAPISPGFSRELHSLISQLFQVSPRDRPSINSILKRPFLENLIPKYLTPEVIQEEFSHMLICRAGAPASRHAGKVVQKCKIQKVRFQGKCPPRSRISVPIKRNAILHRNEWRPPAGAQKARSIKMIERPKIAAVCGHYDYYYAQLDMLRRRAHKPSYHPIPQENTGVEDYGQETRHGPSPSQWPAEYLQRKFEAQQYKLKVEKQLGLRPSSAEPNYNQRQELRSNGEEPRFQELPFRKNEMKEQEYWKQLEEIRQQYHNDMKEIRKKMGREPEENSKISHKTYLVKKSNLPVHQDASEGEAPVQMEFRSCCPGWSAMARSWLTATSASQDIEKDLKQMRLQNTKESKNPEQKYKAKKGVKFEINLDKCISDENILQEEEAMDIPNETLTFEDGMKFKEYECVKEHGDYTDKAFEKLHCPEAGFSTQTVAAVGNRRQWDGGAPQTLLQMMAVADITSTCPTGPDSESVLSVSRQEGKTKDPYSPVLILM

[25] = molecular target: MAPK13 (human) (UniProt O15264)
[26] = molecular target: JAK2 JH1 catalytic (human) (UniProt O60674)
[27] = tested on: KIT (human), P10721 [V559D/V654A]
[28] = molecular target: NUAK1 (human) (UniProt O60285)
[29] = molecular target: BRAF (human) (UniProt P15056)
[30] = molecular target: MAPK9 (human) (UniProt P45984)
[31] = molecular target: CDK19 (human) (UniProt Q9BWU1)
[32] = molecular target: SLK (human) (UniProt Q9H2G2)
[33] = molecular target: CSNK2A1 (human) (UniProt P68400)
[34] = molecular target: MAP3K9 (human) (UniProt P80192)
[35] = molecular target: DYRK1B (human) (UniProt Q9Y463)
[36] = molecular target: MARK3 (human) (UniProt P27448)
[37] = molecular target: ULK1 (human) (UniProt O75385)
[38] = molecular target: MST4 (human) (UniProt Q9P289)
[39] = molecular target: RPS6KA1 KD2 (human) (UniProt Q15418)
[40] = molecular target: STK32B (human) (UniProt Q9NY57)
STK32B (human), sequence (Q9NY57 whole entry, looked up): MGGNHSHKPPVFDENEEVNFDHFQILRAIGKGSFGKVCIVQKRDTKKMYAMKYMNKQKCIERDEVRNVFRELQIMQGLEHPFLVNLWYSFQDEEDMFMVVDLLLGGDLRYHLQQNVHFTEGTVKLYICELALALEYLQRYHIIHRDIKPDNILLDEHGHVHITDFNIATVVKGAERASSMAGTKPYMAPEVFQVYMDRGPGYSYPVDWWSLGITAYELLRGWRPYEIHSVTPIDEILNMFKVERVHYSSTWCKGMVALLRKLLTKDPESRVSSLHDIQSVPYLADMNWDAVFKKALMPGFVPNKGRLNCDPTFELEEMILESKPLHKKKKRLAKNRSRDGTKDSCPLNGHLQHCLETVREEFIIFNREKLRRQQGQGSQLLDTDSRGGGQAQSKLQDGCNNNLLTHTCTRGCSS

MINK1 (human), sequence (Q8N4C8 whole entry, looked up): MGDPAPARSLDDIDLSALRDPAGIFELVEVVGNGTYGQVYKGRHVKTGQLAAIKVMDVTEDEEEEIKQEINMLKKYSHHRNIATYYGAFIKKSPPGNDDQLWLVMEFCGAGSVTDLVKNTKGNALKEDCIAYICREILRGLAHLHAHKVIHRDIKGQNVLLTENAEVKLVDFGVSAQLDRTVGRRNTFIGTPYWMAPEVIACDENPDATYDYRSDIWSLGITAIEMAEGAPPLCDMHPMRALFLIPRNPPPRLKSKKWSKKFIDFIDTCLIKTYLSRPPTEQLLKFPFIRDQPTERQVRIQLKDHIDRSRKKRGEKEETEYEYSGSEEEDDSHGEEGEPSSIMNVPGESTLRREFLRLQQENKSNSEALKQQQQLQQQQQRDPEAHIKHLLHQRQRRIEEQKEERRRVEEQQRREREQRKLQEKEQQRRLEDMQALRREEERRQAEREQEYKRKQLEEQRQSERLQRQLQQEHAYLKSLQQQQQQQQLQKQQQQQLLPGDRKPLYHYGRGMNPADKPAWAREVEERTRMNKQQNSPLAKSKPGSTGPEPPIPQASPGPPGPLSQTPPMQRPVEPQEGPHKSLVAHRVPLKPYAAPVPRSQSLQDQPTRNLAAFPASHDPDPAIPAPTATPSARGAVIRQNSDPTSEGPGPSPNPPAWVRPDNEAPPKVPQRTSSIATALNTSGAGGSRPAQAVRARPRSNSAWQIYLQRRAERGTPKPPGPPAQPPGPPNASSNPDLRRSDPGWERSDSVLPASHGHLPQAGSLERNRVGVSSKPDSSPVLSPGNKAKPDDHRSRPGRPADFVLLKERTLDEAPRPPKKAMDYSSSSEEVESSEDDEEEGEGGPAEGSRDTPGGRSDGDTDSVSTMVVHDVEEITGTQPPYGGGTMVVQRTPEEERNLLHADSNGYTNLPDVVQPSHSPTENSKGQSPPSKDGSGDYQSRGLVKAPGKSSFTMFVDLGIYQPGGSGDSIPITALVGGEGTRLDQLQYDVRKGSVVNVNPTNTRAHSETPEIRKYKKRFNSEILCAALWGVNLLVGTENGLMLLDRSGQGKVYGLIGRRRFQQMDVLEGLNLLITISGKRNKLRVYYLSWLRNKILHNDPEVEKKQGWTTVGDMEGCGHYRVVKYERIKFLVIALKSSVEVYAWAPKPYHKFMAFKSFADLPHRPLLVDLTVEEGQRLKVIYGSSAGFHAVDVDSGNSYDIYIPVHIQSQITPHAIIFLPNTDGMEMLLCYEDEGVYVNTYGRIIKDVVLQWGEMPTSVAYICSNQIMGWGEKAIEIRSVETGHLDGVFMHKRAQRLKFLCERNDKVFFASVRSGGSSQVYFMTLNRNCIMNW
BMPR1B (human), sequence (O00238 whole entry, looked up): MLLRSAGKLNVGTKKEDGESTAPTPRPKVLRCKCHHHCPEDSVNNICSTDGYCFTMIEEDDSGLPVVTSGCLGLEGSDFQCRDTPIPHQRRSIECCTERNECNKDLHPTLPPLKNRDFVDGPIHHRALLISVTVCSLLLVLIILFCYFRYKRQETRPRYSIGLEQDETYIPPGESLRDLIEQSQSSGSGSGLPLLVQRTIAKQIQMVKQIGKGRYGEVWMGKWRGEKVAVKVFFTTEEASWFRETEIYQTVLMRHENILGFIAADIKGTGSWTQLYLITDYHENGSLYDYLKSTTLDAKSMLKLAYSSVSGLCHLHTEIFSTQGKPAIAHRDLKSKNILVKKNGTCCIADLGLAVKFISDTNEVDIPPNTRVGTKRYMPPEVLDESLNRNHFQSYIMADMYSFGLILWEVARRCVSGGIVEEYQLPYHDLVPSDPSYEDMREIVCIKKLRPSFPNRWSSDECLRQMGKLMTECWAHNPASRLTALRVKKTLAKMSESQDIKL

N#CCNC(=O)c1ccc(-c2ccnc(Nc3ccc(N4CCOCC4)cc3)n2)cc1
kinase still bound, per cent of control [1]: 85%
kinase still bound, per cent of control [2]: 100%
kinase still bound, per cent of control [3]: 0.35%
kinase still bound, per cent of control [4]: 82%
kinase still bound, per cent of control [5]: 100%
kinase still bound, per cent of control [6]: 100%
kinase still bound, per cent of control [7]: 33%
kinase still bound, per cent of control [8]: 47%
kinase still bound, per cent of control [9]: 58%
kinase still bound, per cent of control [10]: 0.25%
kinase still bound, per cent of control [11]: 78%
kinase still bound, per cent of control [12]: 100%
kinase still bound, per cent of control [13]: 100%
kinase still bound, per cent of control [14]: 83%
kinase still bound, per cent of control [15]: 100%
kinase still bound, per cent of control [16]: 70%
kinase still bound, per cent of control [17]: 76%
kinase still bound, per cent of control [18]: 100%
kinase still bound, per cent of control [19]: 100%
kinase still bound, per cent of control [20]: 100%
kinase still bound, per cent of control [21]: 53%
kinase still bound, per cent of control [22]: 84%
kinase still bound, per cent of control [23]: 69%
kinase still bound, per cent of control [24]: 2.4%
kinase still bound, per cent of control [25]: 100%
kinase still bound, per cent of control [26]: 0.1%
kinase still bound, per cent of control [27]: 100%
kinase still bound, per cent of control [28]: 45%
kinase still bound, per cent of control [29]: 74%
kinase still bound, per cent of control [30]: 26%
kinase still bound, per cent of control [31]: 100%
kinase still bound, per cent of control [32]: 100%
kinase still bound, per cent of control [33]: 52%
kinase still bound, per cent of control [34]: 45%
kinase still bound, per cent of control [35]: 90%
kinase still bound, per cent of control [36]: 16%
kinase still bound, per cent of control [37]: 40%
kinase still bound, per cent of control [38]: 83%
kinase still bound, per cent of control [39]: 80%
kinase still bound, per cent of control [40]: 93%

CS(=O)(=O)N1CCN(Cc2cc3nc(-c4cccc5[nH]ncc45)nc(N4CCOCC4)c3s2)CC1
kinase still bound, per cent of control [1]: 100%
kinase still bound, per cent of control [2]: 100%
kinase still bound, per cent of control [3]: 100%
kinase still bound, per cent of control [4]: 100%
kinase still bound, per cent of control [5]: 100%
kinase still bound, per cent of control [6]: 100%
kinase still bound, per cent of control [7]: 100%
kinase still bound, per cent of control [8]: 100%
kinase still bound, per cent of control [9]: 100%
kinase still bound, per cent of control [10]: 100%
kinase still bound, per cent of control [11]: 100%
kinase still bound, per cent of control [12]: 100%
kinase still bound, per cent of control [13]: 100%
kinase still bound, per cent of control [14]: 100%
kinase still bound, per cent of control [15]: 100%
kinase still bound, per cent of control [16]: 100%
kinase still bound, per cent of control [17]: 100%
kinase still bound, per cent of control [18]: 100%
kinase still bound, per cent of control [19]: 100%
kinase still bound, per cent of control [20]: 100%
kinase still bound, per cent of control [21]: 100%
kinase still bound, per cent of control [22]: 100%
kinase still bound, per cent of control [23]: 100%
kinase still bound, per cent of control [24]: 100%
kinase still bound, per cent of control [25]: 100%
kinase still bound, per cent of control [26]: 100%
kinase still bound, per cent of control [27]: 100%
kinase still bound, per cent of control [28]: 100%
kinase still bound, per cent of control [29]: 100%
kinase still bound, per cent of control [30]: 100%
kinase still bound, per cent of control [31]: 100%
kinase still bound, per cent of control [32]: 100%
kinase still bound, per cent of control [33]: 100%
kinase still bound, per cent of control [34]: 100%
kinase still bound, per cent of control [35]: 100%
kinase still bound, per cent of control [36]: 100%
kinase still bound, per cent of control [37]: 100%
kinase still bound, per cent of control [38]: 100%
kinase still bound, per cent of control [39]: 100%
kinase still bound, per cent of control [40]: 100%

Reference: the kinase profiling compilation of Christmann-Franck et al. (2016)
